Experimental data as given in US7268160B2, “Remedies” (Takara Bio, Inc., priority 2000, dated 2007).

Tests used:
[1] = tested on: NGF production in the L-M cells; experiment: Enhancing activity for NGF production, Reference Example 1 method (24 hours culture, NGF enzyme immunoassay of culture medium); assay type: cell-based, murine; conditions: for Enhancement of NGF production (in words): L-M cells; for Enhancement Ratio (%): negative control = 100%
Method: (§1) L-M cells (ATCC CCL-1.2) from murine fibroblasts were suspended in an M199 medium (manufactured by ICN) containing 0.5% bactopeptone (manufactured by Gibco BRL) so as to have a concentration of 1.5×10^5 cells/mi. The suspension was put in a 96-well plate in an amount of 0.1 ml each well, and the cells were aseptically cultured. After culturing the cells for 3 days, the medium was removed therefrom, and exchanged with an M199 medium containing 0.5% bovine serum albumin (manufactured by Sigma). Caffeic acid (manufactured by Sigma, dimethyl suif oxide (DMSO) solution), a substance known to have enhancing activity for NGF production, was added to each well containing the cells, so as to have a final concentration of 0, 50, 100 or 200 μM, and the cells were cultured for 24 hours. One having a caffeic acid concentration of 0 μM was used as a negative control. In addition, the final concentration of DM50 in each well was adjusted to 0.1%. After the termination of the culture, the NGF concentration in the culture medium was determined by an enzyme immunoassay method (NGF Emax Immuno Assay System, manufactured by Promega). The degree of the enhancement for NGF production of caffeic acid at each added amount was expressed in percentage as the enhancement ratio (%) on the basis of the NGF concentration in the cell culture medium at each added amount, when the NGF concentration in the cell culture medium of the negative control was defined as 100%. The experiment was carried out twice, and an average value was taken. It was shown that the enhancing activity for NGF production of caffeic acid could be assayed by this method.
The enhancing activity for NGF production of the compound (13) (manufactured by Funakoshi) was assayed in the same manner as in Reference Example 1. The compound (13) was added so as to have a final concentration of 0, 0.5, 1, 2, 5, 10, 20 or 50 μM.
The enhancing activity for NGF production of a compound (14) (manufactured by Sigma) was assayed in the same manner as in Reference Example 1. The compound (14) was added so as to have a final concentration of 0, 50, 100 or 200 μM.
The enhancing activity for NGF production of a compound (15) (manufactured by Sigma) was assayed in the same manner as in Reference Example 1. The compound (15) was added so as to have a final concentration of 0, 12.5, 25 or 50 μM.
The enhancing activity for NGF production of a compound (16) (manufactured by Wako Pure Chemical Industries) was assayed in the same manner as in Reference Example 1. The compound (16) was added so as to have a final concentration of 0, 25, 50 or 100 μM.

[2] = tested on: NGF production in the L-M cells; experiment: Enhancing activity for NGF production, Example 13 method (20 hours culture after addition); assay type: cell-based, murine; conditions: Mus musculus, negative control = 100%, read-out: Enhancement Ratio (%)
Method: as §1
The enhancing activity for NGF production of each of the compounds (5) to (12), (17) to (22), (24) and (25) prepared in Preparation Examples 2 to 9 and Examples 1 to 8, and the compound (23) (rosemarinic acid; manufactured by Funakoshi), or caffeic acid (CA), 4-methylcatechol (4MC) and epinephrine (EN), substances conventionally known to enhance NGF production was assayed in the same manner as in Reference Example 1. In addition, the time period for cell culture after the addition of the compound was 20 hours. A negative control was set for every test of each compound. Each experiment was carried out twice, and an average value was taken.
(1) L-M cells (ATCC CCL-1.2) from murine fibroblasts were suspended in an M199 medium (manufactured by ICN) containing 0.5% bactopeptone (manufactured by Gibco) so as to have a concentration of 1.5×10^5 cells/ml. The suspension was put in a 96-well plate in an amount of 0.1 ml each well, and the cells were aseptically cultured. After culturing the cells for 3 days, the medium was removed therefrom, and exchanged with an M199 medium containing 0.5% bovine serum albumin (manufactured by Sigma). Thereto was added an yellow pigment (powder Sun Yellow No. 2, manufactured by San-Ei Gen F.F.I.) obtained by extraction from flower of Carthamus tinctorius LINNE) as the sample so as to have a final concentration of 0, 1.25, 2.5 or 5 mg/ml, and the cells were cultured for 20 hours. After the termination of the culture, the NGF concentration in the culture medium was assayed by an enzyme immunoassay method (NGF Emax Immuno Assay System, manufactured by Promega). The degree of the enhancement for NGF production was expressed in the percentage as an enhancement ratio (%), when the NGF concentration in the cell culture medium with no addition of the sample as the negative control was defined as 100%. The experiment was carried out twice, and an average value was taken. […]
The enhancing activity for NGF production of the purified safflomin A thus obtained was determined in the same manner as in Example 13. The purified safflomin A was added so as to have a fmal concentration of 0 or 2.5 mg/ml. […]

[3] = tested on: NGF production in the L-M cells; experiment: Enhancement for NGF production by flavonols, Example 16 (24 hours culture); assay type: cell-based, rat; conditions: for Enhancement of NGF production (in words): L-M cells; for Enhancement Ratio (%): negative control (distilled water) = 100%
Method: L-M cells (ATCC CCL-1.2) from […] fibroblasts were suspended in an M199 medium (manufactured by ICN) containing 0.5% bactopeptone (manufactured by Gibco BRL) so as to have a concentration of 1.5×10^5 cells/ml. The suspension was put in a 96-well plate in an amount of 0.1 ml each well, and the cells were aseptically cultured. After culturing the cells for 3 days, the medium was removed therefrom, and exchanged with an M199 medium containing 0.5% bovine serum albumin (manufactured by Sigma).
As the negative control, that with addition of distilled water was used. After the termination of the culture, the NGF concentration in the culture medium was assayed by an enzyme immunoassay method (NGF Emax Immuno Assay System, manufactured by Promega). The degree of the enhancement for NGF production at each added amount was expressed in percentage as the enhancement ratio (%) on the basis of the NGF concentration in the cell culture medium at each added amount when the NGF concentration in the cell culture medium of the negative control was defined as 100%. The experiment was carried out twice, and an average value was taken.
The enhancing activity for NGF production of myricitrin (manufactured by Funakoshi) was assayed in the same manner as in item (1) of Example 16. Myricitrin was added so as to have a final concentration of 0, 31.3, 62.5, 125 or 250 μM.
The enhancing activity for NGF production of quercitrin (manufactured by Sigma) was assayed in the same manner as in item (1) of Example 16. Quercitrin was added so as to have a final concentration of 0, 31.3, 62.5, 125 or 250 μM.

| Structure (SMILES) | Enhancement of NGF production (in words) [1] | Enhancement Ratio (%) ([1]; added amount 50 μM) | Enhancement Ratio (%) ([1]; added amount 100 μM) | Enhancement of NGF production (in words) [3] | Enhancement Ratio (%) ([3]; added amount 31.3 μM) | Enhancement Ratio (%) ([3]; added amount 62.5 μM) | Enhancement Ratio (%) ([3]; added amount 250 μM) | Enhancement Ratio (%) ([3]; added amount 125 μM) | further results |
| --- | --- | --- | --- | --- | --- | --- | --- | --- | --- |
| O=C(O)/C=C/c1ccc(O)c(O)c1 [CA, caffeic acid, reference compound] | enhanced NGF production in a concentration-dependent manner | 89.7 | 150 | – | – | – | – | – | Enhancement Ratio (%) ([1]; added amount 200 μM): 349%; activity at 50 µM ([2]; added amount 50 μM): 165%; activity at 100 µM ([2]; added amount 100 μM): 170%; activity at 200 µM ([2]; added amount 200 μM): 200% |
| O=c1c(O)c(-c2cc(O)c(O)c(O)c2)oc2cc(O)cc(O)c12 [Myricetin, myricetin] | – | – | – | enhanced NGF production in the L-M cells in a concentration-dependent manner | – | – | – | – | – |
| O=c1c(O)c(-c2ccc(O)c(O)c2)oc2cc(O)cc(O)c12 [Quercetin, quercetin] | – | – | – | enhanced NGF production in the L-M cells in a concentration-dependent manner | 122 | 108 | 219 | – | – |
| C[C@@H]1O[C@@H](Oc2c(-c3ccc(O)c(O)c3)oc3cc(O)cc(O)c3c2=O)[C@H](O)[C@H](O)[C@H]1O [Quercitrin, quercitrin] | – | – | – | enhanced NGF production in the L-M cells in a concentration-dependent manner | 122 | 140 | 207 | 193 | – |
| COc1cc(/C=C/C(=O)CC(=O)/C=C/c2ccc(O)c(OC)c2)ccc1O [Compound (16), Curcumin] | enhanced NGF production in the L-M cells in a concentration-dependent manner | 116 | 261 | – | – | – | – | – | Enhancement Ratio (%) ([1]; added amount 25 μM): 114% |
| C[C@H]1O[C@@H](Oc2c(-c3cc(O)c(O)c(O)c3)oc3cc(O)cc(O)c3c2=O)[C@@H](O)[C@@H](O)[C@@H]1O [Myricitrin, myricitrin] | – | – | – | enhanced NGF production in the L-M cells in a concentration-dependent manner | 105 | 159 | 304 | 294 | – |
